Several values for one entry are separate records, joined by “and”; a condition that tells them apart may be missing. Identical values can stand only once. Like-named read-outs stand apart in the source and are kept apart here.
Assays:
Wistar rats = assay: Acetic acid-induced abdominal spasm test in the rat; assay type: in vivo; conditions: oral 100 mg/kg
Method: (§1) The objective of this example was to determine the analgesic activity of HY-2901 (Also referred to herein as Compound 49a) following oral administration. Analgesic activity was assessed abdominal spasm test in the rat and mouse. Analgesic activity is also assessed using the tail clip test in the mouse, tail flick test in the rat, Randall-Selitto test in the rat and comparisons are made with a vehicle control group. Reference compounds ASA (acetylsalicylic acid) and morphine are also included for comparison.
(§2) The tail clip and tail flick test provide useful information about the central analgesic activity of the test article. The Randall-Selitto test provides information on the compound's ability to modify a hyperalgesic state and the abdominal spasm test provides information on the peripheral analgesic activity of the test article. The test article is administered by oral gavage, this being the intended clinical route of administration. The dose levels employed are expected to encompass the efficacy dose and provide an adequate safety margin.
(§3) All formulations were prepared on each day of dosing. The test article (HY-2901) was formulated in 0.25% (w/v) MC at the highest concentration required. Lower doses were obtained by serial dilution of the highest concentration using 0.25% (w/v) MC. The reference compound, acetylsalicylic acid, was formulated in 0.25% (w/v) MC at the required concentrations. Brewer's yeast was formulated in water for injection at the required concentration. Acetic acid was diluted with water for injection to provide the required concentration for administration.
(§4) An adequate number of male Crl:CD-I(ICR)BR mice and Wistar rats were obtained from Charles River (UK) Ltd., Margate, Kent. The mice were approximately 4 weeks of age and weigh between 18 and 22 g on arrival. The rats were approximately 5 weeks of age and weigh between 150 and 170 g on arrival. The age and weight of the animals at the start of the study was documented in the raw data and final report,
Each animal received a single administration of vehicle, test article or reference compound by oral gavage, using a constant dose volume […]. Individual dose volumes were based on individual body weights obtained on the day of dosing.
Forty-five minutes following oral administration each animal received a 1 mL intraperitoneal injection of 1% acetic acid. Animals were immediately placed into individual observation chambers and the number of abdominal spasms elicited over the subsequent 25-minute period was recorded.

Crl:CD-I(ICR)BR mice = assay: Acetic acid-induced abdominal spasm test in the mouse; assay type: in vivo
Method: as §1, §2, §3, §4
Each animal received a single administration of vehicle, test article or reference compound by oral gavage, using a constant dose volume 10 mL/kg. Individual dose volumes were based on individual body weights obtained on the day of dosing.
Forty-five minutes following oral administration each animal received a 0.25 mL intraperitoneal injection of 0.5% acetic acid. Animals were immediately placed into individual observation chambers and the number of abdominal spasms elicited over the subsequent 25-minute period was recorded.

hERG = hERG (Homo sapiens, UniProt Q12809)
Chain of hERG (Q12809 whole entry): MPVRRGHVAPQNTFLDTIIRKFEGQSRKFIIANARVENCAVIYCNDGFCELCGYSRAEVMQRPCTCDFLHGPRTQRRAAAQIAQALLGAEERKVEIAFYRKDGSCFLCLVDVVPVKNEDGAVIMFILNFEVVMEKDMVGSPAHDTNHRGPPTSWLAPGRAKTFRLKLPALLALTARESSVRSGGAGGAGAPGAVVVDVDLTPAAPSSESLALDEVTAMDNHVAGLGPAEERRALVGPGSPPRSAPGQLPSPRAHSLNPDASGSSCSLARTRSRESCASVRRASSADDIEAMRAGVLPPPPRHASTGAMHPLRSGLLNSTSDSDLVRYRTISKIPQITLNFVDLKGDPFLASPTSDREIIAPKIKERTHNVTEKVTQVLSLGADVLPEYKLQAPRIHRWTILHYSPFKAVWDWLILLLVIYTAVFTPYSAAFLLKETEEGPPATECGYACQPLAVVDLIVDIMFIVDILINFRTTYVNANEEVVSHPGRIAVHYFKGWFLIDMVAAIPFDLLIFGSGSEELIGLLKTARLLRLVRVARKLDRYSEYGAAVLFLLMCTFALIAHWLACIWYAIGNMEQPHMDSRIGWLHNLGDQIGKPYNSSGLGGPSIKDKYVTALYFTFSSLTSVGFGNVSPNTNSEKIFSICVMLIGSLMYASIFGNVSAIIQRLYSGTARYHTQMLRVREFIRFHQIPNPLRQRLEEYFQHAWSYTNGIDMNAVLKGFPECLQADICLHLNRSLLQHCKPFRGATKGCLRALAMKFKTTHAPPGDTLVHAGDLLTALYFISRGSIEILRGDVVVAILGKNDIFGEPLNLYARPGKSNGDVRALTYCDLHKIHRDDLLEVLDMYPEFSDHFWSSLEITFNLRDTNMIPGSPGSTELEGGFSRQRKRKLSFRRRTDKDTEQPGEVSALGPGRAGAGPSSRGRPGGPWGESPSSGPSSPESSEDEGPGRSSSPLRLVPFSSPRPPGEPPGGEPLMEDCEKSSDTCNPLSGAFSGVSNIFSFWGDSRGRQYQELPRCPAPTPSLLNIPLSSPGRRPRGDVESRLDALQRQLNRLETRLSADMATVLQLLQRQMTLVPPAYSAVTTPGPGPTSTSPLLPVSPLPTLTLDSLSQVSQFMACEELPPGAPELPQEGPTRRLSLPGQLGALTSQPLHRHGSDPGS

Dopamine, D1 = Dopamine, D1 (UniProt P21728); assay: Dopamine, D1 (human recombinant) binding assay
[1] = target: Adrenergic, Alpha 2, Non-selective; assay: Table 12 panel: Adrenergic, Alpha 2; assay type: binding; conditions: read-out: α2 binding
[2] = target: Adrenergic, Alpha 1, Non-selective; assay: Table 12 panel: Adrenergic, Alpha 1; assay type: binding; conditions: read-out: α1 binding
human 5HT2a receptor = human 5HT2a receptor (Homo sapiens, UniProt P28223); assay: 5HT2a (h) binding (Table 28)
Chain of human 5HT2a receptor (P28223 whole entry): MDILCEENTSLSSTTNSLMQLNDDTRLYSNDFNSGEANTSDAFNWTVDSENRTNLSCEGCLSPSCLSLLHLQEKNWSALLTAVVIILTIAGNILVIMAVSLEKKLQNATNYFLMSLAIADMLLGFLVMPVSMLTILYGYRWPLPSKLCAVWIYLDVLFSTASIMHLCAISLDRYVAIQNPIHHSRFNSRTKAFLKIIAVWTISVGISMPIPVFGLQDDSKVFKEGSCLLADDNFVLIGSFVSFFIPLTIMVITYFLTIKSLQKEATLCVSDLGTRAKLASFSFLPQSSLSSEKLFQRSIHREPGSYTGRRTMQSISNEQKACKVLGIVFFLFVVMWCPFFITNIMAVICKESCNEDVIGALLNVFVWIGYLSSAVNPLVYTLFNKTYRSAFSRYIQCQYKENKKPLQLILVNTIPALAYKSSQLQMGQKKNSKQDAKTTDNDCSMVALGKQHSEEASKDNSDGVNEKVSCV

M2 muscarinic receptor [3] = target: T1, M2 muscarinic receptor (Homo sapiens, UniProt P08172); assay: Muscarinic M2 binding assay
T1 sequence (P08172 1-466): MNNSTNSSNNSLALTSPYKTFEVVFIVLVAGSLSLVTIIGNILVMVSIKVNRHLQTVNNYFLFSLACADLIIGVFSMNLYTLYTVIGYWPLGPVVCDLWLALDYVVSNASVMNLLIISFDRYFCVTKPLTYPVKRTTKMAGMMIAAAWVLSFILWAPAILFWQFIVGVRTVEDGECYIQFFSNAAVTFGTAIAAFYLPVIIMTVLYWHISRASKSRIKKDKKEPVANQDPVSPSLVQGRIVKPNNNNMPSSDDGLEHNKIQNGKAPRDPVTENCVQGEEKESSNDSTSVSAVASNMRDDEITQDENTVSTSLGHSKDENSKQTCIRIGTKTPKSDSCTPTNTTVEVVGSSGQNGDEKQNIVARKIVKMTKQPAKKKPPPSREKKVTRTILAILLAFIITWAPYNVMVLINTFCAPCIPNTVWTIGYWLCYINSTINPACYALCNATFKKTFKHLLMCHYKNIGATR

5HT2a (rat) = 5HT2a (rat) (Rattus norvegicus, UniProt P14842); assay: 5HT2a (rat) binding (Table 28)
Chain of 5HT2a (rat) (P14842 whole entry): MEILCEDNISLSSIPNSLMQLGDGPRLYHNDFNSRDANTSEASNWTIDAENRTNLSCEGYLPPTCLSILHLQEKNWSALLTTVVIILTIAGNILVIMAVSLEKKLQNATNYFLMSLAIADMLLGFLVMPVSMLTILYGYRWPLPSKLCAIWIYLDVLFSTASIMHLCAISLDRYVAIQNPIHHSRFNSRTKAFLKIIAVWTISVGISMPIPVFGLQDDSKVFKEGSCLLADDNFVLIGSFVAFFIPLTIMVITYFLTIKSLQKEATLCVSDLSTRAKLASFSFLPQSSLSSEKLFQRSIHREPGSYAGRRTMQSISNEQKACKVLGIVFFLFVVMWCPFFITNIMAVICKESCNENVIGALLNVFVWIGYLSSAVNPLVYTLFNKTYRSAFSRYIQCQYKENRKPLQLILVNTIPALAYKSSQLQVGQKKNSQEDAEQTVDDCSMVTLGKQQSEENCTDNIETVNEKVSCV
Method: (§5) The comparative data is shown in Table 28, unless otherwise noted, binding was measured with the bovine receptors, H1(hR) is the human H1 receptor, 5HT2a (h) is the human 5HT2a receptor. Binding numbers are presented in nM values.

M1 muscarinic receptor [4] = target: T2, M1 muscarinic receptor (Homo sapiens, UniProt P11229); assay: Muscarinic M1 binding assay ([3H]-scopolamine, N-methyl chloride)
T2 sequence (P11229 1-460): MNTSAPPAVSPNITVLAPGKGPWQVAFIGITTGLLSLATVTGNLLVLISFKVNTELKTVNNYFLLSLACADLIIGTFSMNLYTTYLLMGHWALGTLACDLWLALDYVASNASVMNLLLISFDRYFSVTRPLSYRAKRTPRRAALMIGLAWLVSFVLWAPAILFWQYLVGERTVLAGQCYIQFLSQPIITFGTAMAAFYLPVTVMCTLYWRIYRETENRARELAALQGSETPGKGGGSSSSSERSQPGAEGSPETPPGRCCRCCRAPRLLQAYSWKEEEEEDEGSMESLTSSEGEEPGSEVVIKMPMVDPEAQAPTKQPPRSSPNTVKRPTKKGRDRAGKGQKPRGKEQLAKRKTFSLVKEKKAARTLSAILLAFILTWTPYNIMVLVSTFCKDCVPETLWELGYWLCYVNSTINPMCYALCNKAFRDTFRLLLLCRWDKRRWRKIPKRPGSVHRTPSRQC

human H1 receptor = human H1 receptor (Homo sapiens, UniProt P35367); assay: H1(hR) binding (Table 28)
Chain of human H1 receptor (P35367 whole entry): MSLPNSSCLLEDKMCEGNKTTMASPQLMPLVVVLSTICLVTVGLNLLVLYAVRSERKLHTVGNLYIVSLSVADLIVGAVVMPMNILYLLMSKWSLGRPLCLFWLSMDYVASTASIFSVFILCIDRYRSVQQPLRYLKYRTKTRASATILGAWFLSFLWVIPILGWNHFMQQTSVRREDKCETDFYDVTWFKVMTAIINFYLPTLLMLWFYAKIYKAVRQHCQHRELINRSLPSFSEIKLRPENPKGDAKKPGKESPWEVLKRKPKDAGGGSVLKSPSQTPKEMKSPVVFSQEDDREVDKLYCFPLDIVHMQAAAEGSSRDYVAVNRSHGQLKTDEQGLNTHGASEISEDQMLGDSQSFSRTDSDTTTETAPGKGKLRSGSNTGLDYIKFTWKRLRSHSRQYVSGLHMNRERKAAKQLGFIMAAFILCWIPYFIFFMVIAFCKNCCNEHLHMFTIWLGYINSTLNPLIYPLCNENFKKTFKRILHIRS
Method: as §5

H1 histamine receptor = target: T3, H1 histamine receptor (Bos taurus, UniProt P30546); assay: Histamine H1 competitive binding assay ([3H]pyrilamine); set-up: species or system bovine
T3 construct: the receptors were obtained from bovine cerebellar membrane tissue; from tissue; host or cells: bovine cerebellar membranes
T3 sequence (P30546 whole entry): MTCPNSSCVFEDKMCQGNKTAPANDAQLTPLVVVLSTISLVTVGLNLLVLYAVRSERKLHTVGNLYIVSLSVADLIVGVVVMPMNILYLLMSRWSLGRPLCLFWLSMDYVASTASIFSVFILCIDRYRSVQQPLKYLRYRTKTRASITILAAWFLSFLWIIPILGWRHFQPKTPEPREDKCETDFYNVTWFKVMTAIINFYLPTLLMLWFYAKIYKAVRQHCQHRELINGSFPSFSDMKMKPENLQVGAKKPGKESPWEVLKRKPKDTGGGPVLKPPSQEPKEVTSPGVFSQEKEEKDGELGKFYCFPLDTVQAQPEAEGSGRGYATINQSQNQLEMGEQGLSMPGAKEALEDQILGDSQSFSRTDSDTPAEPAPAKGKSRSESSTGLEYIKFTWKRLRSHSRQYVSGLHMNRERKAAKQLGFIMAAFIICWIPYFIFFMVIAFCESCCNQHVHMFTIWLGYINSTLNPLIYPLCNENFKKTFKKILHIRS

M3 muscarinic receptor [5] = target: T4, M3 muscarinic receptor (Homo sapiens, UniProt P20309); assay: Muscarinic M3 binding assay
T4 sequence (P20309 whole entry): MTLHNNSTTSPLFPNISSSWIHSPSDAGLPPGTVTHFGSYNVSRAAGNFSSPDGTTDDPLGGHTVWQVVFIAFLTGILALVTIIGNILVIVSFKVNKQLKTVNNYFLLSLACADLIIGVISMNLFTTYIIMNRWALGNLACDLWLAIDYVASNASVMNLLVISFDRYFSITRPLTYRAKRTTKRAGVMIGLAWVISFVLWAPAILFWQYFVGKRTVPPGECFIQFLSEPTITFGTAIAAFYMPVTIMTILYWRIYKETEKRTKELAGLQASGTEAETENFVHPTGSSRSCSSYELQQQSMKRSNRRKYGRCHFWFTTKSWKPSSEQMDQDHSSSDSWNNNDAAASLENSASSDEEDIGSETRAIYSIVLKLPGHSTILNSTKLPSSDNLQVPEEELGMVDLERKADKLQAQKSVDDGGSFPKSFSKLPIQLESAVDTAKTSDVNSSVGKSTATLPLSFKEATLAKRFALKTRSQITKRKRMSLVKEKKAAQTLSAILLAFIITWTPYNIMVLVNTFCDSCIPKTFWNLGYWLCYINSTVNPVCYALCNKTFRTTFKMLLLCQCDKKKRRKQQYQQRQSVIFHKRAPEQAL

M2 muscarinic receptor [6] = target: T1, M2 muscarinic receptor; assay: Muscarinic M2 binding assay; set-up: purchased PerkinElmer, Inc., Wellesley, Mass; host or cells: CHO cells; conditions: read-out: Ki M2
M1 muscarinic receptor [7] = target: T2, M1 muscarinic receptor; assay: Muscarinic M1 binding assay ([3H]-scopolamine, N-methyl chloride); set-up: purchased PerkinElmer, Inc., Wellesley, Mass; host or cells: CHO cells; conditions: read-out: Ki M1
male Wistar rats = assay type: in vivo; conditions: rat, in vivo
Method: The Irwin screen can provide useful information on potential side effects of compounds on general physiological and behavioural functions. The screen was conducted by administering the test compounds orally in 0.25% aqueous methylcellulose using male Wistar rats, a frequently used species in such studies and for which background data are readily available.
The Irwin screen tests for numerous parameters in animals that have been administered the test compound. For example, the screen can include: in-cage effects, e.g., dispersion, respiratory rate, locomotor activity, restlessness, fighting, alertness, apathy, and exophthalmus; in-arena effects, e.g., transfer arousal, spatial locomotion, ptosis, startle, tail elevation, piloerection, touch escape, positional passivity, catalepsy, tighting reflex, visual placing, grip strength, pinna, corneal, pain response, and wire manoeuvre; parameters observed in handling, e.g., cyanosis, cutaneous blood flow, hypothermia, body tone, pupil size, light-pupil response, lacrimation, grooming, red staining, salivation, and provoked biting; general scores e.g., fearfulness, irritability, abnormal gait, abnormal body carriage, tremors, twitches, convulsions, bizarre behaviour, writhing, vocalisation, diarrhoea, number of defaecations, number of urinations, moribund, lethality, and abnormalities detected. Further details can be found in Irwin, S; Comprehensive observational assessment: I a. A systematic, quantitative procedure for assessing the behavioural and physiological state of the mouse.
Irwin screening of the disclosed sleep-inducing agents was performed by Covance (Princeton, N.J.) according to Irwin, above; Covance Standard Operating Procedure (current revision of SOP PHARM 8.10); relevant regulatory authority guidelines ICH (International Committee for Harmonization) Guideline (Topic S7A; CPMP/ICH/539/00) on Safety Pharmacology Studies for human pharmaceuticals (November 2000); and all procedures carried out on live animals were subject to the provisions of United Kingdom Law, in particular the Animals (Scientific Procedures) Act, 1986. which obliges all UK laboratories to maintain a local ethical review process to ensure that all animal use in the establishment is carefully considered and justified; that proper account is taken of all possibilities for reduction, refinement or replacement and that high standards of accommodation and care are achieved.
All test compound formulations were prepared on the day of dosing by Covance Harrogate Dispensary. The test compounds were formulated in 0.25% aqueous methylcellulose at the highest concentration required. Lower doses were obtained by serial dilution of the highest concentration using 0.25% aqueous methylcellulose. Dose levels are expressed in terms of the amount of test compound administered without regard to purity or active content. All formulations were stored at room temperature (nominally 10 to 30° C.) in sealed containers and protected from light.
An adequate number of male Wistar (Crl:WI(Glx/BRL/Han) BR:WH) rats were obtained from Charles River Ltd. (Margate, Kent, United Kingdom). The rats were approximately 5 weeks of age and weighed between 150 and 170 g on arrival. The animals were housed in groups of no more than six in polypropylene cages (33×15×13 cm) or (45×28×20 cm) with solid floors and Grade 10 woodflakes (Datesand Ltd., Cheshire, United Kingdom) as bedding. The cages were cleaned and dried before use. Aspen chew blocks were placed within the cages as a form of environmental enrichment. Routinely, holding rooms were maintained within acceptable limits for temperature and relative humidity (nominally 19 to 25° C. and 40% to 70%, respectively). These rooms were illuminated by fluorescent light for 12 hours out of each 24 hour cycle and designed to receive at least 15 fresh air changes per hour. […]

M3 muscarinic receptor [8] = target: T4, M3 muscarinic receptor; assay: Muscarinic M3 binding assay; set-up: purchased PerkinElmer, Inc., Wellesley, Mass; host or cells: CHO cells; conditions: read-out: Ki M3
adult male Wistar rats = assay: SCORE-2000 sleep-wakefulness, locomotor activity and body temperature monitoring; assay type: in vivo, rat
[9] = target: Dopamine, D1 (human recombinant) (UniProt P14416); assay: Dopamine D2 binding assay (printed as D1 in b555)
Method: In vitro binding assays are used to determine H1 binding (i.e., primary target binding) and M1, M2 and M3 binding (i.e., off target binding). […] Similar assays are performed with H1 and dopamine receptors (D1 and D2), and with H1 and adrenergic receptors (α1 and α2).
Dopamine, D1 (human recombinant) binding assay was performed according to published procedures. See, e.g., Jarvie, et al. J. Recept Res., 13(1–4): 573–90 (1993); and Gundlach, et al. Life Sciences, 35(19): 1981–8 (1984) with modifications

[10] = bovine receptor, read-out: H1 binding

## CC(=O)Oc1ccccc1C(=O)O [ASA, acetylsalicylic acid, reference compound]
Wistar rats
  Group mean (=sd) number pf abdominal spasms recorded in a 25-minute period: 1 ± 2.3
Wistar rats; 100 mg/kg
  Number of abdominal spasms recorded in a 25-minute period, individual animal data: 0 (3×) and 1 (2×) and 6
Crl:CD-I(ICR)BR mice; oral 100 mg/kg
  Group mean (±sd) number of abdominal spasms recorded in a 25 minute period: 29 ± 29.9
Crl:CD-I(ICR)BR mice; oral, 100 mg/kg, individual animal data (animals 25-30)
  Number of abdominal spasms recorded in a 25-minute period: 17 and 8 and 45 and 82 and 1 and 23

## COc1ccc2c(c1)COc1ccc(F)cc1C2=C1CCN(CC2(C(=O)O)CC2)CC1 [Compound 10519]
hERG
  HERG: 6.10%
Dopamine, D1
  Ki: > 10000 nM
[1]
  Ki: > 10000 nM
[2]
  Ki: > 10000 nM
Human 5HT2a receptor
  Ki: 541 nM
M2 muscarinic receptor [3]
  Ki: > 10000 nM
5HT2a (rat)
  Ki: 56 nM
M1 muscarinic receptor [4]
  Ki: > 10000 nM
Human H1 receptor
  Ki: 34 nM
H1 histamine receptor; [10]
  Ki: 19.8 nM
M3 muscarinic receptor [5]
  Ki: > 10000 nM

## O=C(O)C1(CCN2CCC(=C3c4ccc(Cl)cc4COc4ccccc43)CC2)CC1 [Compound 59b]
hERG; human, 10 µM, pH 7.4
  hERG at micromolar (% blocking of the hERG channel): 28% @ 10
M2 muscarinic receptor [6]
  Ki: > 10000 nM
M1 muscarinic receptor [7]
  Ki: > 10000 nM
Male Wistar rats
  Irwin at mg/kg dose: clean
H1 histamine receptor; read-out: Ki H1
  Ki: 66.7 nM
M3 muscarinic receptor [8]
  Ki: > 10000 nM
Adult male Wistar rats; dose 10 mg/kg oral at CT-18
  LUSB: 12.8 min
  NREM: 42.4 min
Adult male Wistar rats; dose 30 mg/kg oral at CT-18
  LUSB: 6.1 min
  NREM: 23.1 min

## COc1ccc2c(c1)COc1ccccc1C2=C1CCN(CC(C)(C)C(=O)O)CC1 [Compound 50a]
hERG; human, 10 µM, pH 7.4
  hERG at micromolar (% blocking of the hERG channel): 9.7% @ 10
M2 muscarinic receptor [6]
  Ki: > 10000 nM
M1 muscarinic receptor [7]
  Ki: > 10000 nM
Male Wistar rats
  Irwin at mg/kg dose: clean
H1 histamine receptor; read-out: Ki H1
  Ki: 27.2 nM
M3 muscarinic receptor [8]
  Ki: > 10000 nM
Adult male Wistar rats; dose 3 mg/kg oral at CT-18
  LUSB: 4.8 min
  NREM: 12.7 min
Adult male Wistar rats; dose 10 mg/kg oral at CT-18
  LUSB: 9.3 min
  NREM: 32.6 min
Adult male Wistar rats; dose 30 mg/kg oral at CT-18
  LUSB: 11.2 min
  NREM: 41.9 min

## COc1ccc2c(c1)COc1ccc(F)cc1C2=C1CCN(CCC(=O)O)CC1 [Compound 10518]
hERG; human, 10 µM, pH 7.4
  HERG: 3.90%
Dopamine, D1
  Ki: > 10000 nM
[1]
  Ki: > 10000 nM
[2]
  Ki: 2850 nM
Human 5HT2a receptor
  Ki: 422 nM
M2 muscarinic receptor [3]
  Ki: > 10000 nM
5HT2a (rat)
  Ki: 197 nM
M1 muscarinic receptor [4]
  Ki: > 10000 nM
Human H1 receptor
  Ki: 35 nM
H1 histamine receptor; [10]
  Ki: 52.3 nM
Adult male Wistar rats; 3 mg/kg
  LUSB 3 mg/kg: 6.7 ± 2.3
Adult male Wistar rats; 10 mg/kg
  LUSB 10 mg/kg: 7.9 ± 1.7
Adult male Wistar rats; 10 mpk
  NREM cumul. 10 mpk: 46 ± 7
[9]
  Ki: > 10000 nM

Reference: patent publication US7326721B2 (Hypnion, Inc., priority 2003, dated 2008)
